Experiments:
[1] = Stability in water (D2O solution followed by proton NMR); format: physicochemical; conditions: room temperature; for change in the NMR spectrum: 3 mg/ml
Description: Sodium triptolide succinate was dissolved in D2O, and the aqueous solution was stored at room temperature.
Stability in Water: a solution of sodium triptolide succinate in D2O can be prepared at a concentration of 3 mg/ml and stored at room temperature. The solution can be analyzed by ^1H NMR at intervals of 1, 3, 5, 15, 45, 90, 180 minutes; 1, 7, 14 days; and 1, 2, 3, and 5 months.

[2] = system: relapsed or refractory acute myeloid leukemia; assay: Exploratory dose escalation treatment of patients with relapsed or refractory leukemias; format: in vivo
Description: PG490-88 Na is a 14-succinyl triptolide sodium salt of triptolide (PG490).
In this example, 29 patients with relapsed or refractory leukemias were treated. Median age was 57 years (range : 30 - 79). Sixty two percent of patients were male. Twelve dose levels from 0.150 to 13 mg/m^2/day were tested in one patient each, with an increase by 50% for each successive cohort of patients until one dose limiting toxicity (DLT) was observed. Thereafter, dose escalation was switched to a standard design using cohorts of 3 to 6 patients per dose level, with 30% dose increments.
Among all the patients, 6 […] presented with a disease refractory to standard induction chemotherapy and the others were in 1st or 2nd relapse who had failed salvage therapy for 9 of them. […]

[3] = Stability in blood serum (hydrolysis followed by TLC); format: in vitro ADME; conditions: rat serum, 37°C
Description: The stability of triptolide succinate in blood serum was determined. In this study, a solution of triptolide succinate (the free acid of the sodium triptolide succinate) in DMSO was mixed with rat serum and incubated at 37°C. The mixture was assayed periodically by thin layer chromatography (TLC) to follow the hydrolysis of the triptolide succinate over time. […] After 15 minutes, the triptolide succinate spot was gone and a new spot corresponding to triptolide had appeared (Rf =0.60). Finally, after 45 minutes, the triptolide spot had also disappeared, and only low Rf material (blood serum components and decomposition products) remained.
Stability in Blood Serum: a solution of triptolide succinate (free acid) in DMSO can be made at a concentration of 25 mg/ml, and 0.1 ml of this solution can be mixed with 0.5 ml of rat serum. The mixture was incubated at 37°C. Aliquots of the mixture should then be taken at 1, 3, 5, 15, 45 minutes and 18 hours and analyzed by thin layer chromatography (TLC). The TLC plates can be developed in 1:5 CH2Cl2/Et2O. After development, the plates can be treated with iodine vapor and examined under a UV lamp. Triptolide and triptolide succinate can be used as reference compounds (Rf =0.60, and 0.45, respectively).
After 15 minutes, the triptolide succinate spot may be gone (Rf =0.45), and a new spot corresponding to triptolide may have appeared (Rf =0.60). After 45 minutes, the triptolide spot may also disappear, and only low Rf material (blood serum components and decomposition products) may remain.

[4] = patients with relapsed or refractory leukemias
[5] = recommended dose of 5.7 mg/m^2/day

With CC(C)[C@]12O[C@H]1[C@@H]1O[C@]13[C@]1(O[C@H]1C[C@H]1C4=C(CC[C@@]13C)C(=O)OC4)[C@@H]2OC(=O)CCC(=O)[O-].[Na+] [PG490-88 Na, 14-succinyl triptolide sodium salt] the “change in the NMR spectrum” value ([1]; after 5 months) was “Some decomposition”, the “change in the NMR spectrum” value ([1]; during the first three months) was “No appreciable change” and the “stability in aqueous solution (proton NMR spectra)” value ([1]; after five months) was “some decomposition”. For the same compound, the “stability in aqueous solution (proton NMR spectra)” value ([1]; after three months) was “unchanged”, the “cerebellar toxicity, patients” value ([2]; 7 mg/m^2/day (one grade 2 and two grade 4)) was 3 patients and the “cerebellar toxicity, patients” value ([2]; 8.5 mg/m^2/day (two grade 4)) was 2 patients. For the same compound, the response ([2]; another patient, 8.5 mg/m^2/day, after 2 cycles of treatment) was “CRp: complete remission without full platelets recovery”, the “cerebellar toxicity, patients” value ([2]; doses > 5.7 mg/m^2/day) was 5 patients and the “overall response on relapsed or refractory acute myeloid leukemia” value ([2]; exploratory dose escalation experiments) was “very good response”. The response ([2]; one patient, 5.7 mg/m^2/day, day 15 of the treatment, one cycle) was “complete remission (CR) with pancytopenia”, the haematological toxicity ([2]; patient with CRp, 8.5 mg/m^2/day, after cycle 2) was “no haematological toxicity” and the haematological toxicity ([2]; patient with CRp, 8.5 mg/m^2/day, after the first cycle) was “grade 4 aplasia lasting 20 days”. The “maximum tolerated dose (MTD)” value [2, 4] was 7 mg/m^2/day, the “recommended dose for this regimen” value [2, 4] was 5.7 mg/m^2/day and the “grade 3 leucopenia (related adverse event), patients” value [2, 5] was 1 patient. The “other related adverse events” value [2, 5] was “mild diarrhoea, nausea and vomiting”, the haematological toxicity ([2]; third patient (complete remission), 8.5 mg/m^2/day, after the first cycle) was “moderate leucopenia (grade 1 lasting 2 days)” and the haematological toxicity ([2]; third patient (complete remission), 8.5 mg/m^2/day, during the second cycle) was “no haematotoxicity”. For the same compound, the response ([2]; third patient, 8.5 mg/m^2/day, after 2 cycles of treatment) was “complete remission”.

With Triptolide Succinate the “time for hydrolysis in serum to release free triptolide” value [3] was “less than an hour”, the “species detected by TLC” value ([3]; after 3 minutes) was “only triptolide succinate may be detected” and the “triptolide succinate spot (Rf =0.45) by TLC” value ([3]; after 15 minutes) was “gone”. For the same compound, the “triptolide succinate spot (Rf =0.45) by TLC” value ([3]; within the first 3 to 5 minutes) was “most of the triptolide succinate remained”.
